The conditions of data set [1]: decomposition product; cited from earlier work.
A further data set relates to Aspergillus funigatus. As to the kind of experiment: efficacy against Aspergillus funigatus. In kind it is cell-based. The method, then:
(§1) The incorporation of the sugar group into the aminoacridine molecule modifies its properties in an unforeseen way. Thus e.g. 3,6-diamino-acridine and 3,6-diamino-10-methyl-acridine are efficacious in concentrations of 50 μg/ml against microorganisme (Bacillus subtilis, Salmonalla typhy-murium, Proteus vulgaris, Escherichia coli, Shigella flexneri etc.) while the diglucoside of the 3,6-diamino-acridine is inefficacious also in concentrations of 500 μg/ml against the named microorganisms. Inversely the aminoacridines are inefficacious against fungi while the diglucoside of 3,6-diamino-10-methyl-acridine is efficacious e.g. against Aspergillus funigatus and Aspergillus niger.

For the next data set, the system named is Aspergillus niger. Put plainly: efficacy against Aspergillus niger. In kind it is cell-based. As for the experimental part:
as §1

The test system of another data set is Ehrlich tumor. Put plainly: inhibition and prevention of the Ehrlich tumor in mice and rats. In kind it is in vivo.
Data set [2] is described as follows: toxicity measurements at CFLP-mice (LD50). The settings on record: mouse, in vivo, female CFLP-mice. The text has this:
By the incorporation of one or more sugar residue(s) the toxicity of the compounds is influenced positively, too. The results of toxicity measurements carried out at CFLP-mice (female) (Litchfield, J. T. and Wilcoxon F.: J. Pharmacol. 96, 99 (1949) are summarized in the following Table.

In data set [3] the test system is ascites tumor according to Ehrlich. Put plainly: test with the Ehrlich-carcinoma in mice. In kind it is in vivo. As for the experimental part: A test with the Ehrlich-carcinoma was carried out with 50 mice each as test group and as K control group. The animals were intraperitoneally infected with 5×10^6 cells each of the ascites tumor according to Ehrlich. On the first, second and third day after the infection half of the mice were treated with 12.5 mg/kg.d of 10-methyl-proflavine-diglucoside.

The test system of another data set is Ehrlich ascites tumor. Particulars: Schumelfelder et al., Z. Krebsforsch, 63, 129 (1959); cited from earlier work.
The conditions of data set [4]: known; cited from earlier work.
For another data set, the system named is wounds. Particulars: disinfecting of wounds, World War II; cited from earlier work.
For data set [5] the following is noted: literature; cited from earlier work.

Read-outs that look alike come from different tables or passages of the source.

As to `O=c1c2ccccc2[nH]c2cccc([N+](=O)[O-])c12` [1-nitroacridone], the biological activity entry in data set [1] is “biologically inactive”.
As for `C[n+]1c2cc(N[C@@H]3O[C@H](CO)[C@@H](O)[C@H](O)[C@H]3O)ccc2cc2ccc(N[C@@H]3O[C@H](CO)[C@@H](O)[C@H](O)[C@H]3O)cc21.[Cl-]` [3,6-Di-(β-D-glucopyranosyl-amino)-10-N-methyl-acridinium chloride], the efficacy against fungi result in the data set on Aspergillus funigatus and with Aspergillus niger was “efficacious” in each case. Further, the “state of the animal concerning its condition” value in the data set with Ehrlich tumor (6.25 mg/kg-12.5 mg/kg i.p.) is reported as “improves the state of the animal concerning its condition”. Moreover, the “development of the Ehrlich tumor” value with Ehrlich tumor (test animals: mice and rats) is “inhibits the development of the Ehrlich tumor”. Besides, the “formation of the Ehrlich tumor” value in the data set with Ehrlich tumor (test animals: mice and rats) is on record as “prevents its formation”. Besides, the LD50 is 210 mg/kg in data set [2] (ip, read-out: LD50 i.p.) and 37 mg/kg in data set [2] (iv, read-out: LD50 i.v.). In addition, in [3] (12.5 mg/kg.d on first, second and third day after infection, 7th day), the “Change of body weight in g on the 7th day” value is “+1.2 g”. Also, in [3] (12.5 mg/kg.d on first, second and third day after infection, 12th day), the “Change of body weight in g on the 12th day” value is reported as “+2.0 g”. Also, in [3] (12.5 mg/kg.d on first, second and third day after infection, 21st day), the “Change of body weight in g on the 21st day” value was “+2.6 g”. Further, the “treated animals still living on the 40th day” value in [3] (12.5 mg/kg.d, 40th day) is reported as “all treated animals were still living”. Moreover, the “Average surviving time” value in data set [3] (12.5 mg/kg.d, observation stopped on the 40th day) came out at 40.0 days.
For the compound `C[n+]1c2cc(N)ccc2cc2ccc(N)cc21` [3,6-diamino-10-methyl-acridine], the 50% lethal dose (LD50) in data set [2] (ip, read-out: LD50 i.p.) was determined as 60 mg/kg. In data set [2] (iv, read-out: LD50 i.v.), the LD50 stood at 14 mg/kg. Also, in the data set with Ehrlich ascites tumor, the “growth of the Ehrlich ascites tumor” value is listed as “inhibited”. The antimicrobial effect result in data set [4] was “exert a certain antimicrobial effect”. For the same compound, in the data set with wounds, the “healing of the wound” value is “slowed down the healing of the wound” and the tissue necrosis entry was “caused tissue necrosis”. In data set [5], the “mutation of certain objects” value is given as “can cause mutation of certain objects”.
Take `Nc1ccc2cc3ccc(N)cc3nc2c1` [3,6-diamino-acridine, 3,6-diaminoacridine]: the median lethal dose (LD50) in data set [2] (ip, read-out: LD50 i.p.) is 84 mg/kg. In addition, the 50% lethal dose (LD50) in data set [2] (iv, read-out: LD50 i.v.) was determined as 65 mg/kg. Besides, the antimicrobial effect result in [4] is on record as “exert a certain antimicrobial effect”. In the data set on wounds, the “healing of the wound” value is “slowed down the healing of the wound” and the tissue necrosis result is recorded as “caused tissue necrosis”. Besides, the “mutation of certain objects” value in data set [5] is given as “can cause mutation of certain objects”.
On to `OC[C@H]1O[C@@H](Nc2ccc3cc4ccc(N[C@@H]5O[C@H](CO)[C@@H](O)[C@H](O)[C@H]5O)cc4nc3c2)[C@H](O)[C@@H](O)[C@@H]1O` [3,6-diamino-acridine-diglucoside, 3,6-Di-(β-Di-glucopyranosyl-amino)-acridine], for which the LD50 in [2] (ip, read-out: LD50 i.p.) was 280 mg/kg; in data set [2] (iv, read-out: LD50 i.v.), 87 mg/kg.

For orientation: LD50 means the dose expected to kill half of the subjects tested.

(Values after US4462993A, “Aminoacridine-α, β-(D)- or -(L)-N-glycoside derivatives, the salts thereof and a process for the preparation of such compounds” (Biogal Gyogyszergyar, priority 1981, dated 1984).)
